Laboratory results as given in the supplement of paper PMC13380429.

Tests used:
Conditions in all cases: 72 h
[1] = tested on: Caco-2; assay: cell viability relative to DMSO; higher = less toxic
[2] = tested on: U2OS; assay: as above
[3] = tested on: Calu-3; assay: as above
[4] = tested on: HepG2; assay: as above
[5] = tested on: Vero E6; assay: as above
[6] = tested on: Caco-2; assay: relative viability EC50 (midpoint between 100% and the lowest measured viability); higher = less toxic
[7] = tested on: U2OS; assay: as above
[8] = tested on: Calu-3; assay: as above
[9] = tested on: HepG2; assay: as above
[10] = tested on: Vero E6; assay: as above
[11] = tested on: Caco-2; assay: drug sensitivity score (DSS) for viability; higher = more toxic; extreme values may be limits of the assay
[12] = tested on: U2OS; assay: as above
[13] = tested on: Calu-3; assay: as above
[14] = tested on: HepG2; assay: as above
[15] = tested on: Vero E6; assay: as above

| Structure (SMILES) | cell viability ([1]; 1 nM) | cell viability ([1]; 10 nM) | cell viability ([1]; 100 nM) | cell viability ([1]; 1000 nM) | cell viability ([1]; 10000 nM) | cell viability ([2]; 1 nM) | cell viability ([2]; 10 nM) | cell viability ([2]; 100 nM) | cell viability ([2]; 1000 nM) | cell viability ([2]; 10000 nM) | cell viability ([3]; 1 nM) | cell viability ([3]; 10 nM) | cell viability ([3]; 100 nM) | cell viability ([3]; 1000 nM) | cell viability ([3]; 10000 nM) | cell viability ([4]; 1 nM) | cell viability ([4]; 10 nM) | cell viability ([4]; 100 nM) | cell viability ([4]; 1000 nM) | cell viability ([4]; 10000 nM) | cell viability ([5]; 1 nM) | cell viability ([5]; 10 nM) | cell viability ([5]; 100 nM) | cell viability ([5]; 1000 nM) | cell viability ([5]; 10000 nM) | relative viability EC50 [6] | relative viability EC50 [7] | relative viability EC50 [8] | relative viability EC50 [9] | relative viability EC50 [10] | drug sensitivity score [11] | drug sensitivity score [12] | drug sensitivity score [13] | drug sensitivity score [14] | drug sensitivity score [15] |
| --- | --- | --- | --- | --- | --- | --- | --- | --- | --- | --- | --- | --- | --- | --- | --- | --- | --- | --- | --- | --- | --- | --- | --- | --- | --- | --- | --- | --- | --- | --- | --- | --- | --- | --- | --- |
| CCCCCCCCCCCC(=O)O [lauric-acid] | 94.1% | 102% | 111% | 110% | 98.2% | 102% | 95.3% | 102% | 97.6% | 98.1% | 102% | 108% | 101% | 100% | 97.5% | 105% | 106% | 87.4% | 96% | 94.3% | 111% | 113% | 101% | 104% | 93.5% | > 10 µM | > 10 µM | > 10 µM | > 10 µM | > 10 µM | 0 | 0 | 0 | 0 | 0 |
| C[C@@H](CN1CC(=O)NC(=O)C1)N1CC(=O)NC(=O)C1 [dexrazoxane] | 89.3% | 103% | 90.4% | 105% | 90.3% | 96.9% | 109% | 96.7% | 102% | 98.6% | 104% | 92.2% | 95.1% | 96.9% | 101% | 93.9% | 106% | 98.2% | 92.2% | 100% | 105% | 101% | 103% | 93.8% | 99.7% | > 10 µM | > 10 µM | > 10 µM | > 10 µM | > 10 µM | 0 | 0 | 0 | 0 | 0 |
| Cc1ccc(C)c(OCCCC(C)(C)C(=O)O)c1 [gemfibrozil] | 102% | 107% | 106% | 93.8% | 101% | 104% | 101% | 104% | 99.1% | 102% | 104% | 104% | 109% | 93.1% | 105% | 98.2% | 99.9% | 102% | 106% | 104% | 98.4% | 101% | 96.5% | 100% | 95.9% | > 10 µM | > 10 µM | > 10 µM | > 10 µM | > 10 µM | 0 | 0 | 0 | 0 | 0 |
| CC(C)CC(N)=O [isovaleramide] | 106% | 92.6% | 99.1% | 99.4% | 101% | 102% | 92.8% | 99.3% | 89.1% | 96.7% | 113% | 103% | 97.1% | 105% | 95.4% | 103% | 99.4% | 101% | 95.5% | 101% | 102% | 101% | 102% | 97.9% | 93.1% | > 10 µM | > 10 µM | > 10 µM | > 10 µM | > 10 µM | 0 | 0 | 0 | 0 | 0 |
| Cc1ccccc1C(C(=O)NC1CCCCC1)N(C(=O)Cn1ccnc1C)c1cccc(F)c1 (stereo not given) [AGI-5198] | 98.4% | 97.5% | 87.9% | 103% | 90.6% | 96.6% | 103% | 102% | 106% | 93.2% | 93.6% | 95.7% | 85.4% | 90.3% | 87.4% | 103% | 99.3% | 112% | 88.6% | 103% | 100% | 100% | 98.9% | 99.2% | 101% | > 10 µM | > 10 µM | > 10 µM | > 10 µM | > 10 µM | 0 | 0 | 0.8 | 0 | 0 |
| C=CCN1CC[C@]2(C)c3cc(O)ccc3C[C@H]1[C@H]2C | 97.3% | 99% | 102% | 103% | 96.3% | 98.6% | 98.2% | 103% | 99.2% | 101% | 102% | 90.2% | 94.7% | 90.3% | 93.8% | 98% | 95.4% | 108% | 104% | 117% | 96.9% | 102% | 93.4% | 100% | 107% | > 10 µM | > 10 µM | > 10 µM | > 10 µM | > 10 µM | 0 | 0 | 0 | 0 | 0 |
| CNCCN(C)Cc1c[nH]nc1-c1ccc(O[C@H]2C[C@H](OCCC3CCOCC3)C2)cc1 | 99.7% | 100% | 107% | 90.4% | 99.6% | 99.5% | 97.6% | 100% | 96.4% | 97% | 96.2% | 97.3% | 94.1% | 100% | 100% | 98% | 102% | 109% | 96.8% | 90.9% | 100% | 105% | 95.9% | 102% | 101% | > 10 µM | > 10 µM | > 10 µM | > 10 µM | > 10 µM | 0 | 0 | 0 | 0 | 0 |
| CC(=O)O[C@]1(C(C)=O)CC[C@H]2[C@@H]3C=C(C)C4=CC(=O)CC[C@@H]4[C@H]3CC[C@@]21C [nomegestrol-acetate] | 88.5% | 97.3% | 102% | 91.6% | 97.4% | 99.8% | 102% | 102% | 103% | 101% | 99% | 94.1% | 87.7% | 106% | 108% | 103% | 97.1% | 102% | 106% | 110% | 100% | 96.3% | 99.3% | 98.6% | 111% | > 10 µM | > 10 µM | > 10 µM | > 10 µM | > 10 µM | 0 | 0 | 0 | 0 | 0 |
| N#CCC(=O)NN [cyacetacide] | 98.2% | 102% | 100% | 95.6% | 97.8% | 95.5% | 103% | 96% | 94% | 102% | 84% | 103% | 96.3% | 95.7% | 108% | 95.7% | 91.9% | 97% | 97.4% | 93.4% | 106% | 98.6% | 102% | 108% | 102% | > 10 µM | > 10 µM | > 10 µM | > 10 µM | > 10 µM | 0 | 0 | 0 | 0 | 0 |
| COC1=C(OC)C(=O)C(CCCCCCCCCCO)=C(C)C1=O [idebenone] | 96.4% | 101% | 103% | 98.4% | 88.6% | 98.6% | 105% | 94.9% | 97.7% | 93.8% | 100% | 104% | 90.3% | 98% | 95.5% | 96.1% | 95.6% | 99.4% | 95.9% | 97.7% | 102% | 100% | 96.9% | 97.8% | 97.7% | > 10 µM | > 10 µM | > 10 µM | > 10 µM | > 10 µM | 0.1 | 0 | 0 | 0 | 0 |
| NC[C@H](O)c1ccc(O)c(O)c1 [norepinephrine] | 88.9% | 95.9% | 101% | 93.2% | 97.5% | 99.4% | 100% | 98.5% | 99.8% | 99.6% | 101% | 88.3% | 93.7% | 98.6% | 95.3% | 102% | 95.3% | 96% | 105% | 106% | 99.9% | 96.7% | 98.1% | 95% | 98.6% | > 10 µM | > 10 µM | > 10 µM | > 10 µM | > 10 µM | 0 | 0 | 0 | 0 | 0 |
| CC(C)c1ccc(CC(=O)N2CCC[C@@H](c3cccc(OC(C)(C)C(=O)O)c3)C2)cc1 | 92.6% | 100% | 93.2% | 97.6% | 96.2% | 103% | 99.5% | 99.7% | 99.6% | 103% | 87.3% | 94.5% | 104% | 108% | 98.6% | 98.3% | 106% | 104% | 106% | 108% | 106% | 103% | 101% | 97.4% | 96.8% | > 10 µM | > 10 µM | > 10 µM | > 10 µM | > 10 µM | 0 | 0 | 0 | 0 | 0 |
| CNNCc1ccc(C(=O)NC(C)C)cc1 [procarbazine] | 98.2% | 105% | 96.2% | 101% | 87.4% | 96% | 103% | 96.4% | 98.7% | 106% | 92.2% | 99.3% | 97.4% | 102% | 90.8% | 103% | 87.7% | 93.3% | 112% | 110% | 103% | 93.2% | 102% | 89% | 102% | > 10 µM | > 10 µM | > 10 µM | > 10 µM | > 10 µM | 0 | 0 | 0 | 0 | 0 |
| C=CC[C@]1(O)CC[C@H]2[C@@H]3CCC4=CC(=O)CCC4=C3C=C[C@@]21C [altrenogest] | 102% | 98.1% | 99% | 107% | 96.5% | 92.7% | 97.2% | 96.1% | 97.7% | 104% | 107% | 88% | 97.6% | 99% | 105% | 107% | 95.9% | 93.6% | 90.2% | 101% | 97% | 97.5% | 93.2% | 89.5% | 104% | > 10 µM | > 10 µM | > 10 µM | > 10 µM | > 10 µM | 0 | 0 | 0 | 0 | 0 |
